Data from patent publication US9796711B2, “Substituted pyrazolo[3,4-b]pyridin-6-carboxylic acids and method of use” (AbbVie S.àr.l., priority 2015, dated 2017).

Assays:
[1] = molecular target: T1, ΔF508-CFTR (Homo sapiens, UniProt P13569, DEL508-508); test: CFTR cell surface levels using HRP-tagged ΔF508-CFTR expressing CFBE cells, in the presence of a co-corrector; format: cell-based
T1 construct: host or cells: CFBE41o-, doxycycline-inducible
Method in brief: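 Cells were seeded with 0.5 μg/mL doxycycline and held 68 h at 37 °C. Test compounds plus 3 μM co-corrector (final 0.1% DMSO) were then added for 20 h at 33 °C. Washed cells received HRP substrate, and luminescence was normalized between DMSO and 3 μM co-corrector controls.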

[2] = molecular target: T1, ΔF508-CFTR; test: CFTR cell surface levels using HRP-tagged ΔF508-CFTR expressing CFBE cells, intrinsic corrector capacity; format: cell-based
Method in brief: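 Here the cells express ΔF508-CFTR with horseradish peroxidase inserted in extracellular loop 4, so only rescued channel at the surface gives luminescent signal. Compounds act on their own, 20 h at the reduced temperature of 33 °C; values are percent activity relative to DMSO and a 3 μM corrector.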

[3] = HRP-tagged ΔF508-CFTR expressing CFBE cells, in the presence of 3 μM co-corrector
[4] = HRP-tagged ΔF508-CFTR expressing CFBE cells, in the presence of 3 μM co-corrector, read-out: EC50
[5] = HRP-tagged ΔF508-CFTR expressing CFBE cells, intrinsic corrector capacity (no co-corrector), 33° C., 20 hours
[6] = HRP-tagged ΔF508-CFTR expressing CFBE cells, intrinsic corrector capacity (no co-corrector), 33° C., 20 hours, read-out: EC50
[7] = HRP-tagged ΔF508-CFTR CFBE41o- cells, compounds alone (intrinsic corrector capacity), 20 hours at 33° C., positive control 3 μM corrector
[8] = HRP-tagged ΔF508-CFTR CFBE41o- cells, compounds alone (intrinsic corrector capacity), 20 hours at 33° C., read-out: EC50

T1 sequence (P13569 with tags, fused parts or gaps DEL508-508): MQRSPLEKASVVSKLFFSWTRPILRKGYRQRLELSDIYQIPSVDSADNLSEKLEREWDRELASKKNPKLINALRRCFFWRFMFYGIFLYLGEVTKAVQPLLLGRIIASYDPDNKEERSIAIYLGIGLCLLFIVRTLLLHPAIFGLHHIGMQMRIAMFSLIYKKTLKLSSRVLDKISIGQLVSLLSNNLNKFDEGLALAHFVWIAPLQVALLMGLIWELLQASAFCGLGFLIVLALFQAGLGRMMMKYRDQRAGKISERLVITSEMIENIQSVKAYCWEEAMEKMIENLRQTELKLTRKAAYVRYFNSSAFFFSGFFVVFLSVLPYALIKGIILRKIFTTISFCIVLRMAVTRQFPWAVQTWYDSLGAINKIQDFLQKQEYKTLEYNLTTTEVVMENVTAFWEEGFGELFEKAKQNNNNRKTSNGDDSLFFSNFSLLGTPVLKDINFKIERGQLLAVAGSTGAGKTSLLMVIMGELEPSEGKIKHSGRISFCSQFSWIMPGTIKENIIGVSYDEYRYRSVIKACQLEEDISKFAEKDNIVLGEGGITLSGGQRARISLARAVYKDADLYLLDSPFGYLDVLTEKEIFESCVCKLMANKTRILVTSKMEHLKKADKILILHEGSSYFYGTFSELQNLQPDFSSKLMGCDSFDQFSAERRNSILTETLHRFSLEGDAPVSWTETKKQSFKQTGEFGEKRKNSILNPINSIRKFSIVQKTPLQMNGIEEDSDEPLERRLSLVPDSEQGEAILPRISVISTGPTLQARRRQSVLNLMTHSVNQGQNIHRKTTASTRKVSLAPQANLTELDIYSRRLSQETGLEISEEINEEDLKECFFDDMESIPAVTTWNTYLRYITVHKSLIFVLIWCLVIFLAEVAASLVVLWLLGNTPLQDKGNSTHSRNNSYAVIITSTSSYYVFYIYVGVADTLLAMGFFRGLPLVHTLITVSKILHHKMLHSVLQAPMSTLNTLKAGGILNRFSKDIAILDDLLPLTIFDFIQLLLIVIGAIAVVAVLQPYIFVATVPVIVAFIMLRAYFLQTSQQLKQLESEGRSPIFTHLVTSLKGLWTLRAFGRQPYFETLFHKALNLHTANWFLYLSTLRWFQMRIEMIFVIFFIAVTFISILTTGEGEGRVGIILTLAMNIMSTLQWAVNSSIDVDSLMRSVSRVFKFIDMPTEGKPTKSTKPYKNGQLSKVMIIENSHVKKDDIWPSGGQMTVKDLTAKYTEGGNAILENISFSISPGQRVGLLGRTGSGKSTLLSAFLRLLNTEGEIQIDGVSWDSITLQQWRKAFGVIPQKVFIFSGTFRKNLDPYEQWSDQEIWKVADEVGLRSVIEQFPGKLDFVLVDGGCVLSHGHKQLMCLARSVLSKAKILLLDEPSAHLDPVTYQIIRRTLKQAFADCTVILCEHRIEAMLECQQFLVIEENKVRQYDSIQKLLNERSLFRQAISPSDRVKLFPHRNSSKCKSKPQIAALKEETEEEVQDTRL

Row | SMILES | % Activation [1, 3] [%] | EC50 [1, 4] [nM] | % Activation [2, 5] [%] | EC50 [2, 6] [nM] | % Activation [2, 7] [%] | EC50 [2, 8] [nM] | EC50 [1] [nM] | EC50 [2] [nM]
1 | COCCC1(COc2cc(C(=O)O)nc3c2c(C2CCC2)nn3-c2ccccc2)CC1 [compound 485, 3-cyclobutyl-4-{[1-(2-methoxyethyl)cyclopropyl]methoxyl}-1-phenyl-1H-pyrazolo[3,4-b]pyridine-6-carboxylic acid] | 242.05 | 335 | 107.5 | 1070 |  |  |  | 
2 | O=C(O)c1cc(N2CCC(N3CCOCC3)CC2)c2c(C3CCC3)nn(-c3ccnc(C4CCOCC4)c3)c2n1 [compound 819, 3-cyclobutyl-4-[4-(morpholin-4-yl)piperidin-1-yl]-1-[2-(oxan-4-yl)pyridin-4-yl]-1H-pyrazolo[3,4-b]pyridine-6-carboxylic acid] | 313.1 | 3330 | 174.7 | 3330 |  |  |  | 
3 | CC(C)c1nn(-c2cccc(N3CCCC3)c2)c2nc(C(=O)O)cc(-c3ccc(N(C)C4CCOCC4)cc3)c12 [compound 249, 4-{4-[nethyl(oxan-4-yl)amino]phenyl}-3-(propan-2-yl)-1-[3-(pyrrolidin-1-yl)phenyl]-1H-pyrazolo[3,4-b]pyridine-6-carboxylic acid] | 596.2 | 288 |  |  | 410.6 | 475 |  | 
4 | COCC1(F)CCN(c2cc(C(=O)O)nc3c2c(C2CCC2)nn3-c2ccccc2)CC1 [compound 463, 3-cyclobutyl-4-[4-fluoro-4-(methoxymethyl)piperidin-1-yl]-1-phenyl-1H-pyrazolo[3,4-b]pyridine-6-carboxylic acid] | 341.85 | 373 | 157.75 | 686 |  |  |  | 
5 | Cc1cccc(-n2nc(C(C)C)c3c(N4CC5(CCCCO5)C4)cc(C(=O)O)nc32)c1 [compound 274, 1-(3-methylphenyl)-4-(5-oxa-2-azaspiro[3.5]nonan-2-yl)-3-(propan-2-yl)-1H-pyrazolo[3,4-b]pyridine-6-carboxylic acid] | 301.45 | 902 |  |  | 114.64 | 1080 |  | 
6 | O=C(O)c1cc(N2CCC3C(CCN3C3CCC3)C2)c2c(C3CCC3)nn(-c3ccc(F)cc3)c2n1 (centres unmarked) [compound 901, 3-cyclobutyl-4-(1-cyclobutyloctahydro-5H-pyrrolo[3,2-c]pyridin-5-yl)-1-(4-fluorophenyl)-1H-pyrazolo[3,4-b]pyridine-6-carboxylic acid] | 432.3 | 151 | 199.2 | 87.6 |  |  |  | 
7 | CC(C)c1nn(-c2ccc(F)cc2)c2nc(C(=O)O)cc(N3CCN(C4CCN(C)CC4)CC3)c12 [compound 801, 1-(4-fluorophenyl)-4-[4-(1-methylpiperidin-4-yl)piperazin-1-yl]-3-(propan-2-yl)-1H-pyrazolo[3,4-b]pyridine-6-carboxylic acid] | 253.1 | 1670 | 67.99 | 1670 |  |  |  | 
8 | O=C1CCC[C@H]2CN(c3cc(C(=O)O)nc4c3c(C3CCC3)nn4-c3ccccc3)C[C@H]2N1 [compound 505, 3-cyclobutyl-4-[(5aS,8aS)-2-oxooctahydropyrrolo[3,4-b]azepin-7(1H)-yl]-1-phenyl-1H-pyrazolo[3,4-b]pyridine-6-carboxylic acid] | 118.3 | > 10000 | -6.616 | > 10000 |  |  |  | 
9 | O=C(O)c1cc(OC(CN2CCOCC2)CN2CCOCC2)c2c(C3CCC3)nn(-c3ccccc3)c2n1 [compound 641, 4-{[1,3-bis(morpholin-4-yl)propan-2-yl]oxy}-3-cyclobutyl-1-phenyl-1H-pyrazolo[3,4-b]pyridine-6-carboxylic acid] | 239.75 | 2270 | 65.07 | 3330 |  |  |  | 
10 | CCCCN1CCCN(c2cc(C(=O)O)nc3c2c(C(C)C)nn3-c2ccc(F)cc2)CC1 [compound 768, 4-(4-butyl-1,4-diazepan-1-yl)-1-(4-fluorophenyl)-3-(propan-2-yl)-1H-pyrazolo[3,4-b]pyridine-6-carboxylic acid] | 256.5 | 1670 | 79.69 | 1580 |  |  |  | 
11 | N#CC1CCN(c2ccc(-c3cc(C(=O)O)nc4c3c(OC3COC3)nn4-c3ccccc3)cn2)CC1 [compound 592, 4-[6-(4-cyanopiperidin-1-yl)pyridin-3-yl]-3-[(oxetan-3-yl)oxy]-1-phenyl-1H-pyrazolo[3,4-b]pyridine-6-carboxylic acid] | 279 | 584 | 116.6 | 1160 |  |  |  | 
12 | O=C(O)c1cc(N2CCC(CN3CCCCC3)CC2)c2c(C3CCC3)nn(-c3ccccc3)c2n1 [compound 686, 3-cyclobutyl-1-phenyl-4-{4-[(piperidin-1-yl)methyl]piperidin-1-yl}-1H-pyrazolo[3,4-b]pyridine-6-carboxylic acid] | 431.1 | 237 | 240.4 | 1670 |  |  |  | 
13 | O=C(O)c1cc(O[C@H]2CCOC2)c2c(C3CCC3)nn(-c3ccccc3)c2n1 [compound 583] | 287.75 | 460 | 134.7 | 1020 |  |  |  | 
14 | Cc1nn(-c2ccccc2)c2nc(C(=O)O)cc(-c3ccc(N4CC(C)(C)C4)cc3)c12 [compound 73, 4-[4-(3,3-dimethylazetidin-1-yl)phenyl]-3-methyl-1-phenyl-1H-pyrazolo[3,4-b]pyridine-6-carboxylic acid] | 303.9 | 3250 |  |  | 110.1 | 3170 |  | 
15 | Cc1nn(-c2ccccc2)c2nc(C(=O)O)cc(OCC3CCC(F)(F)C3)c12 (centres unmarked) [compound 382, 4-[(3,3-difluorocyclopentyl)methoxy]-3-methyl-1-phenyl-1H-pyrazolo[3,4-b]pyridine-6-carboxylic acid] | 268.1 | 1410 |  |  | 80.645 | 1670 |  | 
16 | CC(C)c1nn(C2CCCCC2)c2nc(C(=O)O)cc(-c3ccc(N4CCC(C#N)CC4)nc3)c12 [compound 180, 4-[6-(4-cyanopiperidin-1-yl)pyridin-3-yl]-1-cyclohexyl-3-(propan-2-yl)-1H-pyrazolo[3,4-b]pyridine-6-carboxylic acid] | 524.85 | 687 |  |  | 249.55 | 972 |  | 
17 | CC(=O)Nc1ccc(-c2cc(C(=O)O)nc3c2c(C(C)C)nn3C2CCCCC2)cc1 [compound 171, 4-(4-acetamidophenyl)-1-cyclohexyl-3-(propan-2-yl)-1H-pyrazolo[3,4-b]pyridine-6-carboxylic acid] | 450.73 | 1070 |  |  | 199.67 | 1190 |  | 
18 | CC(C)c1nn(-c2ccc(F)cc2)c2nc(C(=O)O)cc(N3CCC(CC4CCCCC4)CC3)c12 [compound 780, 4-[4-(cyclohexylmethyl)piperidin-1-yl]-1-(4-fluorophenyl)-3-(propan-2-yl)-1H-pyrazolo[3,4-b]pyridine-6-carboxylic acid] | 429.5 | 124 | 233.5 | 249 |  |  |  | 
19 | Cc1c(C(=O)O)nc2c(c(C(C)C)nn2-c2ccc(F)cc2)c1N1CCC(N2CCOCC2)CC1 [compound 763, 1-(4-fluorophenyl)-5-methyl-4-[4-(morpholin-4-yl)piperidin-1-yl]-3-(propan-2-yl)-1H-pyrazolo[3,4-b]pyridine-6-carboxylic acid] | 276.3 |  |  |  | 161.25 |  | 1670 | 1630
20 | CC(C)N1CCN(C2CCN(c3cc(C(=O)O)nc4c3c(C3CCC3)nn4C3CCCCC3)CC2)CC1 [compound 880, 3-cyclobutyl-1-cyclohexyl-4-{4-[4-(propan-2-yl)piperazin-1-yl]piperidin-1-yl}-1H-pyrazolo[3,4-b]pyridine-6-carboxylic acid] | 446.95 | 693 | 259.5 | 169 |  |  |  | 
21 | COCC1CN(C2CCN(c3cc(C(=O)O)nc4c3c(C3CCC3)nn4-c3ccc(F)cc3)CC2)CCO1 (centres unmarked) [compound 853, 3-cyclobutyl-1-(4-fluorophenyl)-4-{4-[2-(methoxymethyl)morpholin-4-yl]piperidin-1-yl}-1H-pyrazolo[3,4-b]pyridine-6-carboxylic acid] | 509.5 | 177 | 290.9 | 261 |  |  |  | 
22 | O=C(O)c1cc(N2CCC(N3CCOCC3)CC2)c2c(C3CCC3)nn(-c3ccnc(OCc4ccccc4)c3)c2n1 [compound 856, 1-[2-(benzyloxy)pyridin-4-yl]-3-cyclobutyl-4-[4-(morpholin-4-yl)piperidin-1-yl]-1H-pyrazolo[3,4-b]pyridine-6-carboxylic acid] | 416.9 | 88.3 | 230.7 | 248 |  |  |  | 
23 | CC(C)c1nn(C2CCCCC2)c2nc(C(=O)O)cc(-c3cnn(C(C)C)c3)c12 [compound 361, 1-cyclohexyl-3-(propan-2-yl)-4-[1-(propan-2-yl)-1H-pyrazol-4-yl]-1H-pyrazolo[3,4-b]pyridine-6-carboxylic acid] | 227.65 | 1160 |  |  | 80.015 | 1540 |  | 
